Results published in patent US20050075375A1 (priority 2003, published 2005).

System: monocistronic NK5.1 HCV replicon in Huh7 cells
Experiment: HCV replicon assay, monocistronic replicon cell line
Format: cell-based, hepatitis C virus
Settings: Hepatitis C virus, Huh-7; monocistronic NK5.1 HCV replicon in Huh7 cells; median value; read-out: Mono EC50 Median
How it was run: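 Huh7 cells carrying the monocistronic NK5.1 replicon, seeded 24 h before dosing, were exposed to six-point half-log compound series (0.6% DMSO) for 3 days at 37 °C. Replicon RNA was quantified by TaqMan RT-PCR, normalised to GAPDH and compared with DMSO controls to derive EC50.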

Molecule `COc1ccc(F)c(-c2nc(-c3ccccn3)n[nH]2)c1` [Compound 388, 2-[5-(2-Fluoro-5-methoxy-phenyl)-1H-[1,2,4]triazol-3-yl]-pyridine] has an EC50 greater than 19 µM.
For `CC(C)c1ccc(-c2nc(-c3ccccn3)n[nH]2)cc1` [Compound 389, 2-[5-(4-Isopropyl-phenyl)-1H-[1,2,4]triazol-3-yl]-pyridine], the EC50 was greater than 19 µM.
In the case of `Cc1cccc(-c2n[nH]c(-c3cccc4ccccc34)n2)n1` [Compound 390, 2-Methyl-6-(5-naphthalen-1-yl-1H-[1,2,4]triazol-3-yl)-pyridine], the EC50 is reported as greater than 19 µM.
`Cc1cccc(-c2n[nH]c(-c3cc(C(C)(C)C)ccc3O)n2)n1` [Compound 391, 4-tert-Butyl-2-[5-(6-methyl-pyridin-2-yl)-2H-[1,2,4]triazol-3-yl]-phenol] showed an EC50 greater than 19 µM.
With `Cc1cccc(-c2n[nH]c(-c3cc([N+](=O)[O-])ccc3O)n2)n1` [Compound 392, 4-Nitro-2-(5-(6-methyl-pyridin-2-yl)-2H-[1,2,4]triazol-3-yl)-phenol] the EC50 was greater than 19 µM.
`Cc1cccc(-c2n[nH]c(-c3cc(F)ccc3O)n2)n1` [Compound 393, 4-Fluoro-2-(5-(6-methyl-pyridin-2-yl)-2H-[1,2,4]triazol-3-yl)-phenol] gave an EC50 greater than 19 µM.
Work on `COc1ccc(O)c(-c2nc(-c3cccc(C)n3)n[nH]2)c1` [Compound 394, 4-Methoxy-2-(5-(6-methyl-pyridin-2-yl)-2H-[1,2,4]triazol-3-yl)-phenol] yielded an EC50 greater than 19 µM.
`Cc1cccc(-c2n[nH]c(-c3cc(Cl)ccc3O)n2)n1` [Compound 395, 4-Chloro-2-(5-(6-methyl-pyridin-2-yl)-2H-[1,2,4]triazol-3-yl)-phenol] gave an EC50 greater than 19 µM.
`CCOc1cccc(-c2nc(-c3cccc(C)n3)n[nH]2)c1O` [Compound 396, 6-Ethoxy-2-(5-(6-methyl-pyridin-2-yl)-2H-[1,2,4]triazol-3-yl)-phenol] showed an EC50 greater than 19 µM.
`Cc1cccc(-c2n[nH]c(-c3ccc(OCc4ccccc4)cc3O)n2)n1` [Compound 397, 5-Benzyloxy-2-(5-(6-methyl-pyridin-2-yl)-2H-[1,2,4]triazol-3-yl)-phenol] gave an EC50 greater than 19 µM.
In the case of `Cc1cccc(-c2n[nH]c(-c3ccc(-c4ccccc4)c(F)c3)n2)n1` [Compound 398, 2-[5-(2-Fluoro-biphenyl-4-yl)-1H-[1,2,4]triazol-3-yl]-6-methyl-pyridine], the EC50 is reported as greater than 19 µM.
For `Cc1cccc(-c2n[nH]c(-c3cc(Br)ccc3O)n2)n1` [Compound 399, 4-Bromo-2-(5-(6-methyl-pyridin-2-yl)-2H-[1,2,4]triazol-3-yl)-phenol], the EC50 was greater than 19 µM.
`Cc1ccc(O)c(-c2nc(-c3cccc(C)n3)n[nH]2)c1` [Compound 400, 4-Methyl-2-(5-(6-methyl-pyridin-2-yl)-2H-[1,2,4]triazol-3-yl)-phenol] showed an EC50 greater than 19 µM.
`COc1ccc(-c2nc(-c3cccc(C)n3)n[nH]2)c(O)c1` [Compound 401, 5-Methoxy-2-(5-(6-methyl-pyridin-2-yl)-2H-[1,2,4]triazol-3-yl)-phenol] showed an EC50 greater than 19 µM.
Molecule `Cc1cccc(-c2n[nH]c(-c3ccccc3O)n2)n1` [Compound 402, 2-(5-(6-methyl-pyridin-2-yl)-2H-[1,2,4]triazol-3-yl)-phenol] has an EC50 greater than 19 µM.
`COc1cccc(-c2nc(-c3cccc(C)n3)n[nH]2)c1O` [Compound 403, 6-Methoxy-2-(5-(6-methyl-pyridin-2-yl)-2H-[1,2,4]triazol-3-yl)-phenol] was tested, and the EC50 was greater than 19 µM.
`Cc1cccc(-c2n[nH]c(-c3cccc([N+](=O)[O-])c3)n2)n1` [Compound 404, 6-Methyl-2-[5-(3-nitro-phenyl)-1H-[1,2,4]triazol-3-yl]-pyridine] showed an EC50 greater than 19 µM.
Work on `COc1cccc(-c2nc(-c3cccc(C)n3)n[nH]2)c1` [Compound 405, 2-[5-(3-Methoxy-phenyl)-1H-[1,2,4]triazol-3-yl]-6-methyl-pyridine] yielded an EC50 greater than 19 µM.
`COc1ccc(F)c(-c2nc(-c3cccc(C)n3)n[nH]2)c1` [Compound 406, 2-[5-(2-Fluoro-5-methoxy-phenyl)-1H-[1,2,4]triazol-3-yl]-6-methyl-pyridine] gave an EC50 greater than 19 µM.
With `COc1ccc([N+](=O)[O-])cc1-c1nc(-c2cccc(C)n2)n[nH]1` [Compound 407, 2-[5-(2-Methoxy-5-nitro-phenyl)-1H-[1,2,4]triazol-3-yl]-6-methyl-pyridine] the EC50 was greater than 19 µM.
With `Cc1cccc(-c2n[nH]c(-c3ccc(C(C)C)cc3)n2)n1` [Compound 408, 2-[5-(4-Isopropyl-phenyl)-1H-[1,2,4]triazol-3-yl]-6-methyl-pyridine] the EC50 was greater than 19 µM.
For `Cc1cccc(-c2n[nH]c(-c3c(O)ccc4ccccc34)n2)n1` [Compound 409, 1-(5-(6-methyl-pyridin-2-yl)-2H-[1,2,4]triazol-3-yl)-naphthalen-2-ol], the EC50 was greater than 19 µM.
For `FC(F)(F)c1ccncc1-c1n[nH]c(-c2cccc3ccccc23)n1` [Compound 410, 3-(5-Naphthalen-1-yl-1H-[1,2,4]triazol-3-yl)-4-trifluoromethyl-pyridine], the EC50 was 2.9 µM.
`CC(C)(C)c1ccc(O)c(-c2nc(-c3cnccc3C(F)(F)F)n[nH]2)c1` [Compound 411, 4-tert-Butyl-2-[5-(4-trifluoromethyl-pyridin-3-yl)-2H-[1,2,4]triazol-3-yl]-phenol] gave an EC50 of 10 µM.
`O=[N+]([O-])c1ccc(O)c(-c2nc(-c3cnccc3C(F)(F)F)n[nH]2)c1` [Compound 412, 4-Nitro-2-[5-(4-trifluoromethyl-pyridin-3-yl)-2H-[1,2,4]triazol-3-yl]-phenol] was tested, and the EC50 was greater than 19 µM.
With `Oc1ccc(F)cc1-c1nc(-c2cnccc2C(F)(F)F)n[nH]1` [Compound 413, 4-Fluoro-2-[5-(4-trifluoromethyl-pyridin-3-yl)-2H-[1,2,4]triazol-3-yl]-phenol] the EC50 was greater than 19 µM.
In the case of `COc1ccc(O)c(-c2nc(-c3cnccc3C(F)(F)F)n[nH]2)c1` [Compound 414, 4-Methoxy-2-[5-(4-trifluoromethyl-pyridin-3-yl)-2H-[1,2,4]triazol-3-yl]-phenol], the EC50 is reported as greater than 19 µM.
Work on `Oc1ccc(Cl)cc1-c1nc(-c2cnccc2C(F)(F)F)n[nH]1` [Compound 415, 4-Chloro-2-[5-(4-trifluoromethyl-pyridin-3-yl)-2H-[1,2,4]triazol-3-yl]-phenol] yielded an EC50 of 14 µM.
`CCOc1cccc(-c2nc(-c3cnccc3C(F)(F)F)n[nH]2)c1O` [Compound 416, 6-Ethoxy-2-[5-(4-trifluoromethyl-pyridin-3-yl)-2H-[1,2,4]triazol-3-yl]-phenol] showed an EC50 greater than 19 µM.
Molecule `Oc1cc(OCc2ccccc2)ccc1-c1nc(-c2cnccc2C(F)(F)F)n[nH]1` [Compound 417, 5-Benzyloxy-2-[5-(4-trifluoromethyl-pyridin-3-yl)-2H-[1,2,4]triazol-3-yl]-phenol] has an EC50 greater than 19 µM.
With `Fc1cc(-c2nc(-c3cnccc3C(F)(F)F)n[nH]2)ccc1-c1ccccc1` [Compound 418, 3-[5-(2-Fluoro-biphenyl-4-yl)-1H-[1,2,4]triazol-3-yl]-4-trifluoromethyl-pyridine] the EC50 was 17 µM.
With `Oc1ccc(Br)cc1-c1nc(-c2cnccc2C(F)(F)F)n[nH]1` [Compound 419, 4-Bromo-2-[5-(4-trifluoromethyl-pyridin-3-yl)-2H-[1,2,4]triazol-3-yl]-phenol] the EC50 was 12 µM.
`Cc1ccc(O)c(-c2nc(-c3cnccc3C(F)(F)F)n[nH]2)c1` [Compound 420, 4-Methyl-2-[5-(4-trifluoromethyl-pyridin-3-yl)-2H-[1,2,4]triazol-3-yl]-phenol] showed an EC50 of 9.7 µM.
